# How the values were obtained:
# U266 MM cell line [1] = assay: Apoptosis by Annexin V-FITC/PI staining, U266; type: cell-based
# Protocol: (§1) In particular, cells were washed twice with room-temperature PBS, resuspended in 100 μL of Annexin binding buffer, and stained with specific antibodies for 20 minutes.
# MM.1S cells = assay: Apoptosis by Annexin V-FITC/PI staining, MM.1S; type: cell-based, human
# Protocol: as §1
# [2] = MTT viability assay, U266; type: cell-based; conditions: human, U266 multiple myeloma cells
# Protocol: (§2) Viability of MM cells was evaluated by 3-[4,5-dimethylthiazol-2-yl]-2,5-diphenyltetrazolium bromide (MTT) colorimetric survival assay. MM cells (20,000-50,000) were plated in 100 μL medium. At the various time points (24-96 hours), 10 μL 5 mg/mL MTT were added to plated cells. After 4 hour incubation at 37° C., medium was discarded and 100 μL MTT stop solution (Isopropanonol with […] Hcl) used to dissolve MTT metabolic products. Absorbance was read at 570 nm and background was subtracted at 630 nm, using spectrophotometer SPECTRAMAX M2 machine and Softmax Pro v5 software. Cellular growth was estimated by cell counting in triplicates, excluding dead cells stained by trypan blue.
# ABL1 = ABL1 cytoplasmic/nuclear localization by subcellular fractionation and Western blot in MM cell lines; type: cell-based; conditions: 2-10 μM; 1, 2, 6 and 24 hs; MM.1S, H929, UTMC-2, JJN-3, KMS-20
# Protocol: (§3) MM cells were harvested and lysed using lysis buffer: 50 mMTris-HCl (pH 7.4), 150 mM NaCl, 1% NP-40, 5 mM EDTA, 5 mM NaF, 2 mM Na3VO4, 1 mM PMSF, 5 μg/mL leupeptine, and 5 μg/mL aprotinin. Nuclear extracts were prepared using Nuclear Extraction Kit (Panomics). Cell lysates were subjected to sodium dodecyl sulfate-polyacrylamide gel electrophoresis SDS-PAGE, transferred to nitrocellulose membranes, and immunoblotted with different antibodies: ATM, phospho-ATM (Ser1981), ATR, phospho-ATR (Ser428), CHK2, phospho-CHK2 (Thr68), CHK1, phospho-CHK1 (Ser296), p21, p53, phospho-p53 (ser127), STK4, LATS1, phospho-LATS1 (Ser909), phospho-ABL1 (Thr735), cleaved caspase 3, cleaved PARP, histone H3, SAPK/JNK, phospho-SAPK/JNK (Thr183/Tyr185), GM130, GAPDH, and α-tubulin (Cell Signaling); STK4, Nuclear Matrix Protein p84 (Abeam), p73 (BD), phospho-H2A.X (Ser139) (Millipore); as well as ABL1, BAX, Puma, Noxa, actin and nucleolin (Santa Cruz Biotechnology).
# ATM = assay: CHK2 (Thr68) phosphorylation immunoblot in MM cells; type: cell-based
# U266 cell line = assay: MTT viability assay, U266; type: cell-based; conditions: doxorubicin 40 nM, 48 h
# Protocol: as §2
# [3] = MTT viability assay, MM.1S; type: cell-based, human; conditions: human, MM.1S multiple myeloma cells; MM.1S; doxorubicin 40 nM, 48 h; read-out: cell viability by MTT assay
# Protocol: as §2
# MTT assay, UTMC-2 = type: cell-based, human; conditions: human, UTMC-2 multiple myeloma cells; UTMC-2; doxorubicin 40 nM, 48 h; read-out: cell viability by MTT assay
# Protocol: as §2
# UTMC-2 cells [4] = assay: MTT assay, UTMC-2; type: cell-based, human; conditions: doxorubicin 40 nM, 48 hours
# Protocol: as §2
# U266 MM cell line [5] = assay: DNA damage markers and ABL1 localization in U266; type: cell-based; conditions: doxorubicin 40 nM
# Protocol: MM cells were harvested and lysed using lysis buffer: 50 mMTris-HCl (pH 7.4), 150 mM NaCl, 1% NP-40, 5 mM EDTA, 5 mM NaF, 2 mM Na3VO4, 1 mM PMSF, 5 μg/mL leupeptine, and 5 μg/mL aprotinin. Nuclear extracts were prepared using Nuclear Extraction Kit (Panomics). […]
# 15,000 cells from MM cell lines, PBMCs or MM patient samples were cytospun for 5 minutes at 350-500 rpm, fixed in 4% paraformaldehyde (PFA) for 15 minutes, washed three times with PBS, and incubated with 0.1M glycin for 10 minutes to quench PFA autofluorescence. […] The slides were then mounted with ProLong Gold Antifade Reagent (Invitrogen), and images were taken using a Zeiss microscope (Carl Zeiss) equipped with Hamamatsu ORCA-ER camera (Hamamatsu Photonics) and analyzed with ImageJ software. […]
# MM.1S and UTMC-2 = assay: DNA damage markers and nuclear ABL1 in MM.1S and UTMC-2; type: cell-based, human; conditions: doxorubicin 40 nM
# Protocol: as §3
# YAP1, p73 = assay: Western blot of YAP1, p73 and p73 targets in MM.1S and U266; type: cell-based; conditions: doxorubicin 40 nM
# Protocol: as §3
# UTMC-2 cells [6] = conditions: doxorubicin 40 nM, 48 h, before treatment 19.1%
# YAP1 = YAP1 knockdown by lentiviral shRNA; type: cell-based
# Protocol: Lentiviral short hairpin RNAs (shRNA) were used to knockdown YAP1 and STK4 expression in MM cells. Scrambled control pLKO.1 shRNA vectors and specific YAP1 and STK4 shRNA constructs were kindly provided by Dr. William Hahn (Dana-Farber Cancer Institute).
# The efficacy of each shRNA in silencing gene expression was tested in HCT-116 and HeLa cell lines using Mirus Bio Trans-IT LT1 transfection reagent. To obtain stable silenced clones with YAP1/STK4 shRNA or pLKO.1 control plasmid, the following protocol was used. 293T cells were plated (300,000 cells on 6-cm plates) in DMEM/10% FBS/0.1% P/S. After 24 hours when cells were 60-70% confluent, 1000 ng of vector of interest together with 100 ng p-VSV-G and 900 ng delta 8.94 (both packaging vectors purchased from Addgene) were co-transfected with MIRUS BIO TransIT-LT1 diluted in OPTI-MEM (GIBCO). After 12 hours, 293T media was changed with DMEM/[…] to promote viral production. 24 and 48 hours post transfection, supernatant containing lentiviral particles was harvested, filtered with 0.45 μM diameter filter, and used to infect 2.5×10^6 MM cells. […] After the second cycle of infection, cells were put under selection with a suitable concentration of puromycin. mRNA and protein expression were evaluated 48 and 72 hrs after selection. […]
compound,measurement,setting,value
CCOc1cc2ncc(C#N)c(Nc3ccc(OCc4ccccn4)c(Cl)c3)c2cc1NC(=O)/C=C/CN(C)C [HKI-272],apoptosis (Annexin V-PI),"U266 MM cell line [1]; 10 μM, untreated 10%",43%
same,apoptosis (Annexin V-FITC/PI),"MM.1S cells; 10 μM, untreated 11%",67%
same,"viability at 24 h, 10 µM","[2]; 10 μM, 24 h, read-out: 24 hour viability (MTT, normalized to DMSO)",98.2%
same,"viability at 48 h, 10 µM","[2]; 10 μM, 48 h, read-out: 48 hour viability (MTT, normalized to DMSO)",87.8%
same,"viability at 72 h, 10 µM","[2]; 10 μM, 72 h, read-out: 72 hour viability (MTT, normalized to DMSO)",56.9%
same,"viability at 96 h, 10 µM","[2]; 10 μM, 96 h, read-out: 96 hour viability (MTT, normalized to DMSO)",17.9%
O=c1cc(-c2cccc3c2Sc2ccccc2S3)oc(N2CCOCC2)c1 [Ku55933],cytoplasmic and nuclear ABL1 levels,ABL1,"increase in the levels of cytoplasmic ABL1, and a concomitant strong reduction of nuclear ABL1"
same,CHK2 phosphorylation at Thr68,ATM,reduction in CHK2 phosphorylation at Thr68
COc1cccc2c1C(=O)c1c(O)c3c(c(O)c1C2=O)C[C@@](O)(C(=O)CO)C[C@@H]3O[C@H]1C[C@H](N)[C@H](O)[C@H](C)O1 [doxorubicin],apoptotic cells (Annexin V and PI staining),"U266 MM cell line [1]; doxorubicin 40 nM, 48 h, before treatment 13.1%",40.1%
same,apoptosis (Annexin V-FITC/PI),"MM.1S cells; doxorubicin 40 nM, 48 h, before treatment 12.4%",55.3%
same,"viability at 48 h, 40 nM","[2]; doxorubicin 40 nM, 48 h, read-out: viable cells (MTT assay)",50%
same,viable cells (MTT assay),U266 cell line,52.8%
same,"viability at 48 h, 40 nM",[3],33.3%
same,"viability at 48 h, 40 nM","MTT assay, UTMC-2",66.5%
same,percentage of apoptotic cells by MTT assay,UTMC-2 cells [4]; UTMC-2 control cells,37.4%
same,percentage of apoptotic cells by MTT assay,UTMC-2 cells [4]; UTMC-2 stably YAP1-silenced,15.8%
same,ABL1 localization,U266 MM cell line [5],ABL1 moved to the nuclear compartment
same,"γ-H2A.X foci, pATM and pJNK phosphorylation",U266 MM cell line [5],induced multiple γ-H2A.X foci and strong pATM and pJNK phosphorylation
same,"γ-H2AX, pATM, pJNK and nuclear ABL1",MM.1S and UTMC-2,"increase in γ-H2AX, pATM, and pJNK was evident, along with a major increase in nuclear ABL1"
same,YAP1 and p73 protein levels,"YAP1, p73","induced YAP1, as well as p73"
same,apoptosis (Annexin V-FITC/PI),UTMC-2 cells [6],57.8%
"shRNA #1: lentiviral shRNA targeting YAP1, CCCAGTTAAATGTTCACCAAT",knockdown of YAP1,YAP1,robust knockdown of YAP1
"shRNA #3: lentiviral shRNA targeting YAP1, CAGGTGATACTATCAACCAAA (the letters are possibly those of the target site)",knockdown of YAP1,YAP1,robust knockdown of YAP1

# From patent US10017767B2, “Targets in multiple myeloma and other disorders” (FONDAZIONE CENTRO SAN RAFFAELE, priority 2012, dated 2018)
